Measurements reported in ChEMBL document CHEMBL4610038, “The synthesis of trifluoromethylated N-nitroaryl-2-amino-1,3-dichloropropane derivatives and their evaluation as potential anti-cancer agents” (Bioorg Med Chem Lett, 2020).

Key:
MCF7 [1] = assay: Cytotoxicity against human MCF7 cells assessed as cell viability at 100 uM relative to control; format: functional; settings: read-out: Activity
MDA-MB-231 [2] = assay: Cytotoxicity against human MDA-MB-231 cells assessed as cell viability at 100 uM relative to control; format: functional; settings: read-out: Activity
MDA-MB-468 [3] = assay: Cytotoxicity against human MDA-MB-468 cells assessed as cell viability at 100 uM relative to control; format: functional; settings: read-out: Activity
SK-BR-3 [4] = assay: Cytotoxicity against human SKBR3 cells assessed as cell viability at 100 uM relative to control; format: functional; settings: read-out: Activity
T47D [5] = assay: Cytotoxicity against human T47D cells assessed as cell viability at 100 uM relative to control; format: functional; settings: read-out: Activity
Caco-2 [6] = assay: Cytotoxicity against human Caco2 cells assessed as cell viability at 100 uM relative to control; format: functional; settings: read-out: Activity
HCT-116 [7] = assay: Cytotoxicity against human HCT116 cells assessed as cell viability at 100 uM relative to control; format: functional; settings: read-out: Activity
HT-29 [8] = assay: Cytotoxicity against human HT-29 cells assessed as cell viability at 100 uM relative to control; format: functional; settings: read-out: Activity
SW48 [9] = assay: Cytotoxicity against human SW48 cells assessed as cell viability at 100 uM relative to control; format: functional; settings: read-out: Activity
A549 [10] = assay: Cytotoxicity against human A549 cells assessed as cell viability at 100 uM relative to control; format: functional; settings: read-out: Activity
NCI-H1299 [11] = assay: Cytotoxicity against human H1299 cells assessed as cell viability at 100 uM relative to control; format: functional; settings: read-out: Activity
CNE [12] = assay: Cytotoxicity against human CNE1 cells assessed as cell viability at 100 uM relative to control; format: functional; settings: read-out: Activity
[13] = Cytotoxicity against human HK1 cells assessed as cell viability at 100 uM relative to control; format: functional; settings: HK-1, read-out: Activity
SUNE1 [14] = assay: Cytotoxicity against human SUNE1 cells assessed as cell viability at 100 uM relative to control; format: functional; settings: read-out: Activity
SH-SY5Y [15] = assay: Cytotoxicity against human SH-SY5Y cells assessed as cell viability at 100 uM relative to control; format: functional; settings: read-out: Activity
ASPC1 [16] = assay: Cytotoxicity against human AsPC1 cells assessed as cell viability at 100 uM relative to control; format: functional; settings: read-out: Activity
BXPC-3 [17] = assay: Cytotoxicity against human BxPC3 cells assessed as cell viability at 100 uM relative to control; format: functional; settings: read-out: Activity
SW1990 [18] = assay: Cytotoxicity against human SW1990 cells assessed as cell viability at 100 uM relative to control; format: functional; settings: read-out: Activity
[19] = Cytotoxicity against human MCF10A cells assessed as cell viability at 100 uM relative to control; format: cell-based, MCF-10A; settings: read-out: Activity
[20] = Cytotoxicity against human MRC5 cells assessed as cell viability at 100 uM relative to control; format: cell-based; settings: read-out: Activity
MCF7 [21] = assay: Cytotoxicity against human MCF7 cells assessed as reduction in cell viability; format: functional, cell-based
MDA-MB-231 [22] = assay: Cytotoxicity against human MDA-MB-231 cells assessed as reduction in cell viability; format: functional, cell-based
MDA-MB-468 [23] = assay: Cytotoxicity against human MDA-MB-468 cells assessed as reduction in cell viability; format: functional, cell-based
SK-BR-3 [24] = assay: Cytotoxicity against human SKBR3 cells assessed as reduction in cell viability; format: functional, cell-based
T47D [25] = assay: Cytotoxicity against human T47D cells assessed as reduction in cell viability; format: functional, cell-based
Caco-2 [26] = assay: Cytotoxicity against human Caco2 cells assessed as reduction in cell viability; format: functional, cell-based
HCT-116 [27] = assay: Cytotoxicity against human HCT116 cells assessed as reduction in cell viability; format: functional, cell-based
HT-29 [28] = assay: Cytotoxicity against human HT-29 cells assessed as reduction in cell viability; format: functional, cell-based
SW48 [29] = assay: Cytotoxicity against human SW48 cells assessed as reduction in cell viability; format: functional, cell-based
A549 [30] = assay: Cytotoxicity against human A549 cells assessed as reduction in cell viability; format: functional, cell-based
NCI-H1299 [31] = assay: Cytotoxicity against human H1299 cells assessed as reduction in cell viability; format: functional, cell-based
CNE [32] = assay: Cytotoxicity against human CNE1 cells assessed as reduction in cell viability; format: functional, cell-based
[33] = Cytotoxicity against human HK1 cells assessed as reduction in cell viability; format: functional, cell-based; settings: HK-1
SUNE1 [34] = assay: Cytotoxicity against human SUNE1 cells assessed as reduction in cell viability; format: functional, cell-based
SH-SY5Y [35] = assay: Cytotoxicity against human SH-SY5Y cells assessed as reduction in cell viability; format: functional, cell-based
ASPC1 [36] = assay: Cytotoxicity against human AsPC1 cells assessed as reduction in cell viability; format: functional, cell-based
BXPC-3 [37] = assay: Cytotoxicity against human BxPC3 cells assessed as reduction in cell viability; format: functional, cell-based
SW1990 [38] = assay: Cytotoxicity against human SW1990 cells assessed as reduction in cell viability; format: functional, cell-based
MCF-10A = assay: Cytotoxicity against human MCF10A cells assessed as reduction in cell viability; format: cell-based
MRC5 = assay: Cytotoxicity against human MRC5 cells assessed as reduction in cell viability; format: cell-based

SMILES	viability at 100 µM (MCF7 [1])	viability at 100 µM (MDA-MB-231 [2])	viability at 100 µM (MDA-MB-468 [3])	viability at 100 µM (SK-BR-3 [4])	viability at 100 µM (T47D [5])	viability at 100 µM (Caco-2 [6])	viability at 100 µM (HCT-116 [7])	viability at 100 µM (HT-29 [8])	viability at 100 µM (SW48 [9])	viability at 100 µM (A549 [10])	viability at 100 µM (NCI-H1299 [11])	viability at 100 µM (CNE [12])	viability at 100 µM [13]	viability at 100 µM (SUNE1 [14])	viability at 100 µM (SH-SY5Y [15])	viability at 100 µM (ASPC1 [16])	viability at 100 µM (BXPC-3 [17])	viability at 100 µM (SW1990 [18])	viability at 100 µM [19]	viability at 100 µM [20]	further results
O=[N+]([O-])c1ccc(NC(CCl)CCl)cc1C(F)(F)F	20.5%	57.4%	58.6%	52.7%	33.2%	20.9%	45%	38.4%	29.1%	27.8%	43.7%	32.6%	59.7%	44.9%	30.6%	58.7%	56.5%	36.7%	59.7%	22.1%	IC50 (MCF7 [21]): 33.1 µM; IC50 (MDA-MB-231 [22]): > 100 µM; IC50 (MDA-MB-468 [23]): > 100 µM; IC50 (SK-BR-3 [24]): > 100 µM; IC50 (T47D [25]): 64.1 µM; IC50 (Caco-2 [26]): 37.1 µM; IC50 (HCT-116 [27]): 83.8 µM; IC50 (HT-29 [28]): 63.1 µM; IC50 (SW48 [29]): 43.4 µM; IC50 (A549 [30]): 70.4 µM; IC50 (NCI-H1299 [31]): > 100 µM; IC50 (CNE [32]): 33.2 µM; IC50 [33]: > 100 µM; IC50 (SUNE1 [34]): 93.1 µM; IC50 (SH-SY5Y [35]): 56.4 µM; IC50 (ASPC1 [36]): > 100 µM; IC50 (BXPC-3 [37]): > 100 µM; IC50 (SW1990 [38]): 55.8 µM; IC50 (MCF-10A): > 100 µM; IC50 (MRC5): 33.9 µM
O=[N+]([O-])c1cc(C(F)(F)F)ccc1NC(CCl)CCl	21.4%	32.1%	65.1%	38.5%	25.6%	21.9%	45.1%	47.1%	32.8%	24.6%	52.4%	27.1%	59.7%	42.3%	33.7%	51.1%	62.9%	42.1%	77.1%	29.9%	IC50 (MCF7 [21]): 34.3 µM; IC50 (MDA-MB-231 [22]): 54.5 µM; IC50 (MDA-MB-468 [23]): > 100 µM; IC50 (SK-BR-3 [24]): 67.8 µM; IC50 (T47D [25]): 35.1 µM; IC50 (Caco-2 [26]): 39.9 µM; IC50 (HCT-116 [27]): 82.1 µM; IC50 (HT-29 [28]): 87.8 µM; IC50 (SW48 [29]): 62.3 µM; IC50 (A549 [30]): 33.3 µM; IC50 (NCI-H1299 [31]): > 100 µM; IC50 (CNE [32]): 32.1 µM; IC50 [33]: > 100 µM; IC50 (SUNE1 [34]): 92.9 µM; IC50 (SH-SY5Y [35]): 62.5 µM; IC50 (ASPC1 [36]): > 100 µM; IC50 (BXPC-3 [37]): > 100 µM; IC50 (SW1990 [38]): 92.1 µM; IC50 (MCF-10A): > 100 µM; IC50 (MRC5): 62.1 µM
O=[N+]([O-])c1ccccc1NC(CCl)CCl	37.7%	85.1%	63.6%	79.9%	69.8%	104%	64.9%	65.3%	62.6%	82.9%	109%	72.5%	101%	80.5%	60.8%	75.2%	105%	64.4%	88.7%	54.8%	IC50 (MCF7 [21]): 50.9 µM; IC50 (MDA-MB-231 [22]): > 100 µM; IC50 (MDA-MB-468 [23]): > 100 µM; IC50 (SK-BR-3 [24]): > 100 µM; IC50 (T47D [25]): > 100 µM; IC50 (Caco-2 [26]): > 100 µM; IC50 (HCT-116 [27]): > 100 µM; IC50 (HT-29 [28]): > 100 µM; IC50 (SW48 [29]): > 100 µM; IC50 (A549 [30]): > 100 µM; IC50 (NCI-H1299 [31]): > 100 µM; IC50 (CNE [32]): > 100 µM; IC50 [33]: > 100 µM; IC50 (SUNE1 [34]): > 100 µM; IC50 (SH-SY5Y [35]): > 100 µM; IC50 (ASPC1 [36]): > 100 µM; IC50 (BXPC-3 [37]): > 100 µM; IC50 (SW1990 [38]): > 100 µM; IC50 (MCF-10A): > 100 µM; IC50 (MRC5): > 100 µM
